From patent US7595171B2 (Sinotrade Technology Limited, priority 2005, dated 2009)
Where two headings read alike, the source gives them in different places. Marks after values point to notes of the source that are not given here.

Columns and labels:
Adonis seedlings = tested on: Adonis seedlings
Description: Seedlings emerging from metribuzin-treated soil were sprayed with a grass-specific herbicide [graminicide; (RS)-7-(4,6-dimethoxypyrimidin-2-ylthio)-3-methyl-2-benzofuran-1(3H)-one] at the seed leaf stage; this would normally be expected to “check” the seedlings (i.e.; cause a degree of non-lethal stress) when applied at the usual time (three true leaf stage).

Adonis [1] = conditions: at high pH
Protocol: Container trials were conducted on the effect of sand content and soil pH on metribuzin-associated Adonis mortality.

Sclerotinia sclerotiorum = assay: Dosage effect of pure cardenolides on pathogen growth (Sclerotinia); format: cell-based; conditions: pure cardenolide
Protocol: Two different cardenolides (cymarin and strophanthidin) were assessed for their dosage effect on pathogen response.

Rainbow trout = Rainbow trout feeding trial: astaxanthin levels in fillets before and after freezing and smoking; format: in vivo; conditions: averaged over three fillet zones
Protocol: (§1) Rainbow trout fed synthetic or Adonis-derived astaxanthin in a feeding trial were harvested 63 days after the feeding trial started and the astaxanthin levels were examined spectrophotometrically (Minolta Chroma Meter) and chemically (by HPLC analysis after lipid removal from the flesh extract) before and after freezing (2 months) and smoking. The initial astaxanthin levels in the feed were adjusted to achieve similar levels of pigmentation of the fish before treatments were carried out. Because pigment levels vary along the length of the fish, measurements were carried out at three positions along each fish (head, mid-body and tail).

[2] = as above; format: in vivo; conditions: rainbow trout, fillet (flesh), oral, Control treatment, averaged over three fillet zones, read-out: HPLC astaxanthin level Average
Protocol: as §1

Weed [3] = assay: Pre-emergence herbicide trial: weed control; format: in vivo
A. palaestina = assay: Seed germination after gibberellic acid pre-soak; format: in vivo, Adonis palaestina
Protocol: Adonis […] populations were evaluated for seed viability and germination. Although seed viability is fair (about 30 to about 70%), germination is very low.

Weed [4] = assay: Container trials: weed control at reduced metribuzin level; format: in vivo
Adonis [5] = assay: Pre-emergence herbicide trial: Adonis seedling establishment; format: in vivo, Adonis palaestina; conditions: for Adonis seedling density: after graminicide stress treatment
[6] = 25 % manufacturer's recommended rate
[7] = 50 % manufacturer's recommended rate
[8] = 12.5 % manufacturer's recommended rate

NC(N)=O [Urea, urea]
Adonis density (Adonis seedlings; Metribuzin 0 g/ha, −Graminicide, +Urea): 95 # plants m^−2

CCOP(=S)(OCC)Oc1nc(Cl)n(C(C)C)n1 [isazophos, O-(5-Chloro-1-(1-methylethyl)-1H-1,2,4-triazol-3-yl) O,O-diethyl phosphorothioate]
interaction with metribuzin (Adonis mortality) (Adonis [1]): negative interaction

CO[C@H]1C[C@H](O[C@H]2CC[C@]3(C=O)[C@H]4CC[C@]5(C)[C@@H](C6=CC(=O)OC6)CC[C@]5(O)[C@@H]4CC[C@]3(O)C2)O[C@H](C)[C@H]1O [cymarin]
growth of Sclerotinia (Sclerotinia sclerotiorum): inhibited

CC1=C(/C=C/C(C)=C/C=C/C(C)=C/C=C/C=C(C)/C=C/C=C(C)/C=C/C2=C(C)C(=O)C(O)CC2(C)C)C(C)(C)CC(O)C1=O (stereo not drawn) [Synthetic, 3,3′-dihydroxy-β,β-carotene-4,4′-dione]
Spectrophotometric (Hunter a values) Average (Rainbow trout; Control treatment, harvested 63 days): 6.5
HPLC astaxanthin level Average (Rainbow trout; Frozen (2 months)): 11.2 mg/kg fish
Spectrophotometric (Hunter a values) Average (Rainbow trout; Frozen (2 months)): 4.2
HPLC astaxanthin level Average (Rainbow trout; Smoked): 14.0 mg/kg fish
Spectrophotometric (Hunter a values) Average (Rainbow trout; Smoked): 5.8
concentration at 63 days [2]: 15100 ng/g

C[C@]12CC[C@H]3[C@@H](CC[C@]4(O)C[C@@H](O)CC[C@]34C=O)[C@@]1(O)CC[C@@H]2C1=CC(=O)OC1 [strophanthidin]
growth of Sclerotinia (Sclerotinia sclerotiorum): inhibited

COC(=O)NS(=O)(=O)c1ccc(N)cc1 [Asulox ®, methyl(4-aminophenyl)sulfonylaminoformate]
Weed density (Weed [3]; [6]): 86 % cover
Weed density (Weed [3]; [7]): 74 % cover
Weed density (Weed [3]; 100 % manufacturer's recommended rate): 87 % cover
weed control (Weed [3]; pre-emergence herbicide): did not achieve much weed control

C=C1C[C@]23C[C@@]1(O)CC[C@H]2[C@@]12C=C[C@H](O)[C@@](C)(C(=O)O1)[C@H]2[C@@H]3C(=O)O [Gibberellic acid, gibberellic acid]
germination (A. palaestina; 24-hour incubation with GA in ethanol at room temperature): further improved germination
% germination (A. palaestina; 1000 ppm, pre-soak 24 hours, 4 °C): 4.3%
% germination (A. palaestina; 1000 ppm, pre-soak 24 hours, 16 °C): 8.7%
% germination (A. palaestina; 1000 ppm, pre-soak 48 hours, 4 °C): 13.7%
% germination (A. palaestina; 1000 ppm, pre-soak 48 hours, 16 °C): 22.3%
% germination (A. palaestina; 2000 ppm, pre-soak 24 hours, 4 °C): 10.7%
% germination (A. palaestina; 2000 ppm, pre-soak 24 hours, 16 °C): 12.6%
% germination (A. palaestina; 2000 ppm, pre-soak 48 hours, 4 °C): 20.4%
% germination (A. palaestina; 2000 ppm, pre-soak 48 hours, 16 °C): 28.7%
% germination (A. palaestina; 3500 ppm, pre-soak 24 hours, 4 °C): 21.4%
% germination (A. palaestina; 3500 ppm, pre-soak 24 hours, 16 °C): 25.7%
% germination (A. palaestina; 3500 ppm, pre-soak 48 hours, 4 °C): 28.7%
% germination (A. palaestina; 3500 ppm, pre-soak 48 hours, 16 °C): 45.7%
% germination (A. palaestina; 5000 ppm, pre-soak 24 hours, 4 °C): 28.0%
% germination (A. palaestina; 5000 ppm, pre-soak 24 hours, 16 °C): 34.7%
% germination (A. palaestina; 5000 ppm, pre-soak 48 hours, 4 °C): 40.3%
% germination (A. palaestina; 5000 ppm, pre-soak 48 hours, 16 °C): 64.7%
germination (A. palaestina; pre-soaking seed in 5000 ppm for 24 hours before sowing): 64.7%

CSc1nnc(C(C)(C)C)c(=O)n1N [Metribuzin, 4-amino-6-tert-butyl-4,5-dihydro-3-methlythio-1,2,4-triazin-5-one]
weed control (Weed [4]; 125 g/ha): inadequate
weed control (Weed [4]; 250 g/ha): reasonable weed control
Weed density (Weed [3]; [8]): 85 % cover
Weed density (Weed [3]; [6]): 79 % cover
Weed density (Weed [3]; [7]): 56 % cover
seedling death (Adonis seedlings; 500 g/ha metribuzin, graminicide sprayed at seed leaf stage): 30%
Adonis density (Adonis seedlings; Metribuzin 250 g/ha, +Graminicide, −Urea): 97 # plants m^−2
Adonis density (Adonis seedlings; Metribuzin 250 g/ha, −Graminicide, +Urea): 107 # plants m^−2
Adonis density (Adonis seedlings; Metribuzin 250 g/ha, −Graminicide, −Urea): 103 # plants m^−2
Adonis density (Adonis seedlings; Metribuzin 500 g/ha, +Graminicide, +Urea): 94 # plants m^−2
Adonis density (Adonis seedlings; Metribuzin 500 g/ha, +Graminicide, −Urea): 65 # plants m^−2
Adonis density (Adonis seedlings; Metribuzin 500 g/ha, −Graminicide, +Urea): 104 # plants m^−2
Adonis density (Adonis seedlings; Metribuzin 500 g/ha, −Graminicide, −Urea): 98 # plants m^−2
Adonis density (Adonis seedlings; Metribuzin (pre) + 250 (post) g/ha, +Graminicide, +Urea): 107 # plants m^−2
Adonis density (Adonis seedlings; Metribuzin (pre) + 250 (post) g/ha, +Graminicide, −Urea): 105 # plants m^−2
Adonis density (Adonis seedlings; Metribuzin (pre) + 250 (post) g/ha, −Graminicide, +Urea): 102 # plants m^−2
Adonis density (Adonis seedlings; Metribuzin (pre) + 250 (post) g/ha, −Graminicide, −Urea): 100 # plants m^−2
Adonis seedling density (Adonis [5]; [8]): 12.1 m^−2
Adonis seedling density (Adonis [5]; [6]): 5.9 m^−2
Adonis seedling density (Adonis [5]; [7]): 1.2 m^−2
safety on Adonis (Adonis [5]; pre-emergence herbicide): could be used safely on Adonis
